From patent publication US9434745B2, “7-oxo-thiazolopyridine carbonic acid derivatives and their use in the treatment, amelioration or prevention of a viral disease” (Savira Pharmaceuticals GmbH, priority 2012, dated 2016)

Molecular target: T1, influenza A virus (IAV) PA-Nter fragment (amino acids 1-209) (Influenza A virus, UniProt P31343)
T1 construct: PA-Nter fragment (amino acids 1-209); made in house
Experiment: FRET endonuclease activity assay
Assay type: biochemical
Conditions: not given

Structure (SMILES) | FRET (result in words)
CCOC(=O)c1cn(Cc2ccccc2-c2ccccc2)c2sc(SC)nc2c1=O | inactive

Same assay, conditions: @ 5 μM; read-out: FRET % reduction of v0

Structure (SMILES) | inhibition at 5 µM [%]
CC(C)c1cc2n(CCCc3ccccc3)cc(C(=O)O)c(=O)n2n1 [drawing 215] | 23

Same assay, conditions: @ 25 μM; read-out: FRET % reduction of v0

Structure (SMILES) | inhibition at 25 µM [%]
O=C(O)c1cn(CCc2ccccc2)c2cc(C3CCCC3)nn2c1=O [drawing 219] | 42
Nc1cc2n(C(=O)C3(c4ccccc4)CCCC3)cc(C(=O)O)c(=O)n2n1 [drawing 220] | 20
CC(C)c1cc2n(CCCc3ccccc3)cc(C(=O)O)c(=O)n2n1 [drawing 222] | 22
CCOC(=O)c1cn(CCc2ccc(O)cc2)c2cc(C3CC3)nn2c1=O [drawing 223] | 22
O=C(O)c1cn(CCc2cccc(Cl)c2)c2cc(C3CC3)nn2c1=O [drawing 224] | 30
O=C(O)c1cn(CCc2cccc(C(F)(F)F)c2)c2cc(C3CC3)nn2c1=O [drawing 225] | 32
O=C(O)c1cn(CCc2ccc(O)cc2)c2cc(C3CC3)nn2c1=O [drawing 227] | 27

Same assay, conditions: from initial reaction velocities (v0) of RNA substrate cleavage

Structure (SMILES) | IC50 [µM]
CSC1=NC2C(=O)C(C(=O)O)=CN(Cc3ccccc3-c3ccccc3)C2S1 (stereo not drawn) | 12
O=C(O)c1cn(Cc2ccccc2-c2ccccc2)c2sc(NC3CCCC3)nc2c1=O | 5.5
N#Cc1ccc(S(=O)(=O)Nc2nc3c(=O)c(C(=O)O)cn(Cc4ccccc4-c4ccccc4)c3s2)cc1 | 2.2
COc1ccc(CNc2nc3c(=O)c(C(=O)O)cn(Cc4ccc(Cl)cc4-c4ccccc4)c3s2)cc1 | 3.8
O=C(O)c1cn(Cc2ccc(Cl)cc2-c2ccccc2)c2sc(O)nc2c1=O | 0.87
O=C(O)c1cn(Cc2ccccc2-c2ccccc2)c2sc(NS(=O)(=O)Cc3ccc(Cl)cc3Cl)nc2c1=O | 7
N#Cc1ccc(S(=O)(=O)Nc2nc3c(=O)c(C(=O)O)cn(Cc4ccccc4-c4ccc(Cl)cc4)c3s2)cc1 | 2.5
COc1ccc(S(=O)(=O)Nc2nc3c(=O)c(C(=O)O)cn(Cc4ccccc4-c4ccc(Cl)cc4)c3s2)cc1 | 7.2
O=C(O)c1c[nH]c2ccnn2c1=O | 58
CC(C)c1cc2[nH]cc(C(=O)O)c(=O)n2n1 | 35
O=c1cc[nH]c2nc(NS(=O)(=O)Cc3ccccc3)nn12 | 34
Nc1cc2[nH]cc(C(=O)O)c(=O)n2n1 | 10
Nc1cc2n(S(=O)(=O)c3ccccc3)cc(C(=O)O)c(=O)n2n1 | 71
O=C(O)c1c[nH]c2nc(NCc3ccccc3)nn2c1=O [drawing 216] | 50
O=C(O)c1cn(CCc2cccc(F)c2)c2cc(C3CC3)nn2c1=O [drawing 226] | 62
COc1ccc(CCn2cc(C(=O)O)c(=O)n3nc(C4CC4)cc23)cc1 [drawing 228] | 69

System: influenza A virus (IAV) A/Aichi/2/68 (H3N2)
Experiment: Cytopathic effect (CPE) assay
Assay type: cell-based
Conditions: @ 50 μM, MDCK cells, 48 hrs, read-out: CPE % reduction

Structure (SMILES) | inhibition at 50 µM [%]
O=C(O)c1cn(Cc2ccccc2-c2ccccc2)c2nc(NC3CCCC3)sc2c1=O | 70
O=C(O)c1cn(Cc2ccccc2-c2ccccc2)c2nc(NCc3ccccc3)sc2c1=O | 68
O=C(O)c1cn(Cc2ccccc2-c2ccccc2)c2sc(N3CCCCC3)nc2c1=O | 83
CNC(=O)c1cn(Cc2ccccc2-c2ccccc2)c2sc(NCc3ccccc3)nc2c1=O | 41
O=C(O)c1cn(Cc2ccccc2-c2ccc(Cl)cc2)c2sc(O)nc2c1=O | 63
COc1ccc(S(=O)(=O)Nc2nc3c(=O)c(C(=O)O)cn(Cc4ccc(Cl)cc4-c4ccccc4)c3s2)cc1 | 67
CCOC(=O)c1cn(Cc2ccccc2-c2ccccc2)c2sc(SC)nc2c1=O | 35
Cc1[nH]c2ncnn2c(=O)c1CC(=O)O | 28
Nc1cc2n(C(=O)C3(c4ccccc4)CCCC3)cc(C(=O)O)c(=O)n2n1 [drawing 237] | 18

Same assay, conditions: MDCK cells, 48 hrs

Structure (SMILES) | IC50 [µM]
N#Cc1ccc(S(=O)(=O)Nc2nc3c(=O)c(C(=O)O)cn(Cc4ccccc4-c4ccccc4)c3s2)cc1 | 18

System: MDCK cells
Experiment: Cytotoxicity in uninfected treated cells (CellTiter-Glo) within the CPE assay
Assay type: cell-based, canine
Conditions: at 50 μM
Experimental: After removal of the culture medium and one washing step with PBS, virus and compound were added together to the cells. In the wells used for cytotoxicity determination (i.e. in the absence of viral infection), no virus suspension was added. Instead, infection medium was added. Each treatment was conducted in two replicates. After incubation at 37° C., 5% CO2 for 48 hrs, each well was observed microscopically for apparent cytotoxicity, precipitate formation, or other notable abnormalities. Then, cell viability was determined using CellTiter-Glo luminescent cell viability assay (Promega). The supernatant was removed carefully and 65 μl of the reconstituted reagent were added to each well and incubated with gentle shaking for 15 min at room temperature. Then, 60 μl of the solution was transferred to an opaque plate and luminescence (RLU) was measured using Synergy HT plate reader (Biotek).
Relative cell viability values of uninfected-treated versus uninfected-untreated cells were used to evaluate cytotoxicity of the compounds. Substances with a relative viability below 80% at the tested concentration were regarded as cytotoxic and retested at lower concentrations.

Structure (SMILES) | Cytotoxicity (relative viability below 80% regarded as cytotoxic)
CSC1=NC2C(=O)C(C(=O)O)=CN(Cc3ccccc3-c3ccccc3)C2S1 (stereo not drawn) | Toxic
O=C(O)c1cn(Cc2ccccc2-c2ccccc2)c2sc(NC3CCCC3)nc2c1=O | toxic

System: not given
Experiment: not given
Conditions: not given

Structure (SMILES) | melting point [°C]
O=C(O)Cc1c[nH]c2nc(Nc3ccccc3)nn2c1=O | 279 to 281
O=C(O)c1cn(Cc2ccccc2)c2cc(C3CC3)nn2c1=O | 210 to 215
O=C(O)c1cn(CCc2ccccc2)c2cc(C3CC3)nn2c1=O | 185 to 190
O=C(O)c1cn(CCc2ccc(O)cc2)c2cc(C3CC3)nn2c1=O | 265 to 270
O=C(O)c1cn(CCc2ccc(Cl)cc2)c2cc(C3CC3)nn2c1=O | 220 to 225
COc1ccc(CCn2cc(C(=O)O)c(=O)n3nc(C4CC4)cc23)cc1 | 145 to 150
O=C(O)c1cn(CCc2ccc(C(F)(F)F)cc2)c2cc(C3CC3)nn2c1=O | 225 to 230
O=C(O)c1cn(CCc2cccc(Cl)c2)c2cc(C3CC3)nn2c1=O | 230 to 235
O=C(O)c1cn(CCc2cccc(F)c2)c2cc(C3CC3)nn2c1=O | 220 to 225
O=C(O)c1cn(CCc2cccc(C(F)(F)F)c2)c2cc(C3CC3)nn2c1=O | 200 to 205
O=C(O)c1cn(CCCc2ccccc2)c2cc(C3CC3)nn2c1=O | 95 to 100
CC(C)c1cc2n(Cc3ccccc3)cc(C(=O)O)c(=O)n2n1 | 180 to 185
CC(C)c1cc2n(CCc3ccccc3)cc(C(=O)O)c(=O)n2n1 | 220 to 225
O=C(O)c1cn(Cc2ccccc2)c2cc(C3CCCC3)nn2c1=O | 213 to 215
O=C(O)c1cn(CCc2ccccc2)c2cc(C3CCCC3)nn2c1=O | 198 to 200
O=C(O)Cc1c[nH]c2cc(C(F)(F)F)nn2c1=O | 320 to 324
O=C(O)Cc1c[nH]c2cc(C3CC3)nn2c1=O | > 300
O=C(NCCc1ccc(Cl)cc1)c1cc2[nH]cc(C(=O)O)c(=O)n2n1 | > 300
CCOC(=O)c1c[nH]c2nc(NCc3ccccc3)nn2c1=O | 275 to 278
CCOC(=O)c1c[nH]c2nc(NCc3ccc(Br)cc3)nn2c1=O | 286 to 287
CCOC(=O)c1c[nH]c2nc(NCc3cccc4ccccc34)nn2c1=O | 273 to 275
CCOC(=O)c1c[nH]c2nc(Nc3ccc(NC(C)=O)cc3)nn2c1=O | > 330
CCOC(=O)c1c[nH]c2nc(Nc3ccc(C)c(Cl)c3)nn2c1=O | > 340
CCOC(=O)Cc1c[nH]c2nc(Nc3ccccc3)nn2c1=O | 255 to 257
CCOC(=O)Cc1c[nH]c2nc(Nc3ccc(OC(C)C)cc3)nn2c1=O | 235 to 240

Structure (SMILES) | melting point [°C]
CCOC(=O)c1c[nH]c2c(C#N)c(CCCNC)nn2c1=O | 285 to 287
O=C(O)c1c[nH]c2cc(C3CC3)nn2c1=O | 275 to 278
O=C(O)c1c[nH]c2cc(C(F)(F)F)nn2c1=O | > 340
CCOC(=O)c1cn(Cc2ccccc2)c2cc(C3CC3)nn2c1=O | 160 to 165
CCOC(=O)c1cn(CCc2ccccc2)c2cc(C3CC3)nn2c1=O | 155 to 160
CCOC(=O)c1cn(CCc2ccc(O)cc2)c2cc(C3CC3)nn2c1=O | 95 to 100
CCOC(=O)c1cn(CCc2ccc(Cl)cc2)c2cc(C3CC3)nn2c1=O | 190 to 195
CCOC(=O)c1cn(CCc2ccc(OC)cc2)c2cc(C3CC3)nn2c1=O | 160 to 165
CCOC(=O)c1cn(CCc2cccc(Cl)c2)c2cc(C3CC3)nn2c1=O | 160 to 165
CCOC(=O)c1cn(CCc2cccc(F)c2)c2cc(C3CC3)nn2c1=O | 160 to 165
CCOC(=O)c1cn(CCc2cccc(C(F)(F)F)c2)c2cc(C3CC3)nn2c1=O | 140 to 145
CCOC(=O)c1cn(CCCc2ccccc2)c2cc(C3CC3)nn2c1=O | 150 to 155
CCOC(=O)c1cn(Cc2ccccc2)c2cc(C(C)C)nn2c1=O | 135 to 140
CCOC(=O)c1cn(CCc2ccccc2)c2cc(C(C)C)nn2c1=O | 130 to 135
CCOC(=O)c1cn(Cc2ccccc2)c2cc(C3CCCC3)nn2c1=O | 148 to 150
CCOC(=O)c1cn(CCc2ccccc2)c2cc(C3CCCC3)nn2c1=O | 162 to 164
CCOC(=O)Cc1c[nH]c2cc(-c3ccccc3)nn2c1=O | 245 to 250
CCOC(=O)Cc1c[nH]c2cc(C(F)(F)F)nn2c1=O | 290 to 293
CCOC(=O)Cc1c[nH]c2cc(C3CC3)nn2c1=O | 280 to 283
CCOC(=O)Cc1cn(C)c2cc(C3CC3)nn2c1=O | 147 to 150
CCOC(=O)c1c[nH]c2cc(C(=O)NCCc3ccc(Cl)cc3)nn2c1=O | > 300
CCOC(=O)c1c[nH]c2cc(C(=O)NC3CCN(Cc4ccccc4)CC3)nn2c1=O | 264 to 266
CCOC(=O)c1c[nH]c2cc(C(=O)NCc3ccccc3)nn2c1=O | 290 to 292
O=C(O)c1c[nH]c2nc(NCc3ccccc3)nn2c1=O | 240 to 245
O=C(O)c1c[nH]c2nc(NCc3cccc4ccccc34)nn2c1=O | 245 to 250
